Key:
Format in all cases: in vivo
wheat variety Ritmo [1] = test: Plot trial: chlorophyll content of leaves (pigment extraction method of Ziegler and Ehle)
wheat variety Ritmo [2] = test: Plot trial: yield components; settings: sprays at BBCH 39 and 59
[3] = test system: infection-free wheat plants of the cultivar Passat; test: Glasshouse trial: green leaf area by visual scoring; settings: for green leaf area of the flag leaf (F) / green leaf area of the second-from-top leaf (F-1) / green leaf area of the third-from-top leaf (F-2): glasshouse
Method: (§1) In a glasshouse trial under controlled conditions, the effect of bixafen was investigated on the physiology, morphology and abiotic stress tolerance of infection-free wheat plants of the cultivar […] plants were grown in 10-litre containers over a period of 4 months. The substrate used was standard earth type ED 73 (Fröndenberg, Germany)+C-Horizont+Sand (4:2:1). The supply of nutrient to the plants took place by feeding with a 0.2% strength Flory 2 liquid fertilizer solution (from Euflor, Munich) once every two weeks. The plants were supplied with water as required. In each component of the trial, 10 repetitions were carried out. To prevent infestation with powdery mildew, Proquinazid (Talius® was applied once. The incidence of aphids and spider mites was avoided by treatments with Karate®, Bulldock® and Sumicidin®. The products under test were applied to the plants, in the form of sequential spray sequences (BBCH 39 and 59). The spray volume was 300 l of water per hectare. [table] The duration of the green coloration of the leaf area was captured on the basis of regular visual scoring of the fraction of the green leaf area.

[4] = test system: infection-free wheat plants of the cultivar Passat; test: Glasshouse trial: size of the flag leaf
Method: as §1, with “Morphological parameters measured, additionally, were the length and width, i.e. the size” for “The duration”, “flag leaf. This was greatest with” for “green coloration of”, “succinate dehydrogenase (SDH) inhibitor bixafen, in comparison to” for “leaf area was captured on”, “other comparison fungicides.” for “basis of regular visual scoring of the fraction of the green leaf area.”

[5] = test system: infection-free wheat plants of the cultivar Passat; test: Glasshouse trial: time of heading (ear emergence); set-up: time of heading of wheat (ears emerged): unit not given here
Method: (§2) In a glasshouse trial under controlled conditions, the effect of bixafen was investigated on the physiology, morphology and abiotic stress tolerance of infection-free wheat plants of the cultivar […] plants were grown in 10-litre containers over a period of 4 months. The substrate used was standard earth type ED 73 (Fröndenberg, Germany)+C-Horizont+Sand (4:2:1). The supply of nutrient to the plants took place by feeding with a 0.2% strength Flory 2 liquid fertilizer solution (from Euflor, Munich) once every two weeks. The plants were supplied with water as required. In each component of the trial, 10 repetitions were carried out.

[6] = test system: infection-free wheat plants of the cultivar Passat; test: Glasshouse trial: temperature of ears and leaves as measure of transpiration activity
Method: as §2

[7] = test system: infection-free wheat plants of the cultivar Passat; test: Glasshouse trial: gas exchange activity of wheat ears; settings: development stage BBCH 75
Method: as §2

wheat = test: Effect on the number of kernels/ear; settings: 1st. trial
[8] = 68 days after second fungicide application (so in the source)
[9] = 75 days after second fungicide application (so in the source)
[10] = 82 days after second fungicide application (so in the source)
[11] = 89 days after second fungicide application (so in the source)
[12] = 96 days after second fungicide application (so in the source)
[13] = 103 days after second fungicide application (so in the source)
[14] = 110 days after second fungicide application (so in the source)
[15] = 117 days after second fungicide application (so in the source)
[16] = glasshouse trial, statement in words

## Cn1cc(C(=O)Nc2ccc(F)cc2-c2ccc(Cl)c(Cl)c2)c(C(F)F)n1 [Bixafen, N-(3′,4′-dichloro-5-fluoro-1,1′-biphenyl-2-yl)-3-(difluoromethyl)-1-methyl-1H-pyrazole-4-carboxamide]
Wheat variety Ritmo [1]; BBCH 75 (mature milk), leaf F
  Chlorophyll content: 1763 µg/g
Wheat variety Ritmo [1]; BBCH 75 (mature milk), leaf F-1
  Chlorophyll content: 1693 µg/g
Wheat variety Ritmo [1]; BBCH 75 (mature milk), leaf F-2
  Chlorophyll content: 1243 µg/g
Wheat variety Ritmo [1]; BBCH 85 (mature dough), leaf F
  Chlorophyll content: 738 µg/g
Wheat variety Ritmo [1]; BBCH 85 (mature dough), leaf F-1
  Chlorophyll content: 631 µg/g
Wheat variety Ritmo [1]; BBCH 85 (mature dough), leaf F-2
  Chlorophyll content: 404 µg/g
Wheat variety Ritmo [1]; alone or in combination with other active fungicidal ingredients, statement in words
  chlorophyll content and breakdown of chlorophyll: the chlorophyll content overall is higher and the breakdown of chlorophyll is slower
Wheat variety Ritmo [2]
  Ears/m^2: 417
  Harvest Index: 58.5
  Straw: 590 g m^−2
  TKM (thousand-kernel mass): 47.7 g
  Yield: 8.5 t ha^−1
[3]; [8]
  green leaf area of the flag leaf (F): 100 % leaf area
  green leaf area of the second-from-top leaf (F-1): 100 % leaf area
  green leaf area of the third-from-top leaf (F-2): 100 % leaf area
[3]; [9]
  green leaf area of the flag leaf (F): 100 % leaf area
  green leaf area of the second-from-top leaf (F-1): 100 % leaf area
  green leaf area of the third-from-top leaf (F-2): 95 % leaf area
[3]; [10]
  green leaf area of the flag leaf (F): 100 % leaf area
  green leaf area of the second-from-top leaf (F-1): 95 % leaf area
  green leaf area of the third-from-top leaf (F-2): 80 % leaf area
[3]; [11]
  green leaf area of the flag leaf (F): 95 % leaf area
  green leaf area of the second-from-top leaf (F-1): 85 % leaf area
  green leaf area of the third-from-top leaf (F-2): 52 % leaf area
[3]; [12]
  green leaf area of the flag leaf (F): 88 % leaf area
  green leaf area of the second-from-top leaf (F-1): 57 % leaf area
  green leaf area of the third-from-top leaf (F-2): 29 % leaf area
[3]; [13]
  green leaf area of the flag leaf (F): 65 % leaf area
  green leaf area of the second-from-top leaf (F-1): 33 % leaf area
  green leaf area of the third-from-top leaf (F-2): 15 % leaf area
[3]; [14]
  green leaf area of the flag leaf (F): 38 % leaf area
  green leaf area of the second-from-top leaf (F-1): 20 % leaf area
  green leaf area of the third-from-top leaf (F-2): 6 % leaf area
[3]; [15]
  green leaf area of the flag leaf (F): 15 % leaf area
  green leaf area of the second-from-top leaf (F-1): 5 % leaf area
  green leaf area of the third-from-top leaf (F-2): 0 % leaf area
[3]; [16]
  effect on the duration of the green leaf area of the wheat plant: pronounced effect
[4]; at BBCH 83-85
  Length of the flag leaf: 28.1 cm
  Width of the flag leaf: 1.7 cm
[4]; at BBCH 83-85, calculated using the formula A = 0.67 × length × width
  Area of the flag leaf: 32.01 cm^2
[4]; at BBCH 83-85, untreated = 100
  Area [rel.] of the flag leaf: 146 rel.
[4]; [16]
  size (length and width) of the flag leaf compared with the other comparison fungicides: greatest
[5]; 45 days after sowing
  time of heading of wheat (ears emerged): 1.8
[5]; 50 days after sowing
  time of heading of wheat (ears emerged): 15.5
[5]; 55 days after sowing
  time of heading of wheat (ears emerged): 42.2
[5]; 60 days after sowing
  time of heading of wheat (ears emerged): 57.0
[5]; 65 days after sowing
  time of heading of wheat (ears emerged): 78.0
[5]; 70 days after sowing
  time of heading of wheat (ears emerged): 88.7
[5]; 75 days after sowing
  time of heading of wheat (ears emerged): 93.5
[5]; 80 days after sowing
  time of heading of wheat (ears emerged): 96.7
[5]; 85 days after sowing
  time of heading of wheat (ears emerged): 98.5
[5]; [16]
  uniformity of heading (ear emergence): the heading is more uniform
[6]; BBCH 75, ear
  Temperature (as a measure of the transpiration activity): 22.3 °C
[6]; BBCH 75, leaf
  Temperature (as a measure of the transpiration activity): 22.1 °C
[6]; BBCH 80, ear
  Temperature (as a measure of the transpiration activity): 18.2 °C
[6]; BBCH 80, leaf
  Temperature (as a measure of the transpiration activity): 16.4 °C
[6]; BBCH 85, ear
  Temperature (as a measure of the transpiration activity): 24.5 °C
[6]; BBCH 85, leaf
  Temperature (as a measure of the transpiration activity): 23.3 °C
[6]; BBCH 90, ear
  Temperature (as a measure of the transpiration activity): 24.1 °C
[6]; BBCH 90, lear (so in the source)
  Temperature (as a measure of the transpiration activity): 22.3 °C
[7]
  Photosynthesis (gas exchange activity of wheat ears): -5.94 CO2 per ear
  Respiration (gas exchange activity of wheat ears): 6.12 CO2 per ear
wheat; applied at BBCH 33 + 59, twice 125 g a.i.
  Kernels/ear: 41.7
wheat; applied at BBCH 39 (bixafen 125 g a.i.; bixafen + prothioconazole 75 + 150 g a.i.)
  Kernels/ear: 42.6
